Values joined by “and” are separate entries in the source; they are usually repeats but may differ in a detail not shown here. Identical values can stand only once.
Key:
Assay in all cases: biochemical
Design in all cases: endogenous in cells; host or cells: K562 cell extract; species or system K562 (extract); replicate k of n = 2 (each experiment ID is one independent experiment; two experiment IDs per compound)
Conditions in all cases: read-out: KDapp
MAP4K4 = MAP4K4 (Homo sapiens, UniProt O95819)
Chain of MAP4K4 (O95819 whole entry): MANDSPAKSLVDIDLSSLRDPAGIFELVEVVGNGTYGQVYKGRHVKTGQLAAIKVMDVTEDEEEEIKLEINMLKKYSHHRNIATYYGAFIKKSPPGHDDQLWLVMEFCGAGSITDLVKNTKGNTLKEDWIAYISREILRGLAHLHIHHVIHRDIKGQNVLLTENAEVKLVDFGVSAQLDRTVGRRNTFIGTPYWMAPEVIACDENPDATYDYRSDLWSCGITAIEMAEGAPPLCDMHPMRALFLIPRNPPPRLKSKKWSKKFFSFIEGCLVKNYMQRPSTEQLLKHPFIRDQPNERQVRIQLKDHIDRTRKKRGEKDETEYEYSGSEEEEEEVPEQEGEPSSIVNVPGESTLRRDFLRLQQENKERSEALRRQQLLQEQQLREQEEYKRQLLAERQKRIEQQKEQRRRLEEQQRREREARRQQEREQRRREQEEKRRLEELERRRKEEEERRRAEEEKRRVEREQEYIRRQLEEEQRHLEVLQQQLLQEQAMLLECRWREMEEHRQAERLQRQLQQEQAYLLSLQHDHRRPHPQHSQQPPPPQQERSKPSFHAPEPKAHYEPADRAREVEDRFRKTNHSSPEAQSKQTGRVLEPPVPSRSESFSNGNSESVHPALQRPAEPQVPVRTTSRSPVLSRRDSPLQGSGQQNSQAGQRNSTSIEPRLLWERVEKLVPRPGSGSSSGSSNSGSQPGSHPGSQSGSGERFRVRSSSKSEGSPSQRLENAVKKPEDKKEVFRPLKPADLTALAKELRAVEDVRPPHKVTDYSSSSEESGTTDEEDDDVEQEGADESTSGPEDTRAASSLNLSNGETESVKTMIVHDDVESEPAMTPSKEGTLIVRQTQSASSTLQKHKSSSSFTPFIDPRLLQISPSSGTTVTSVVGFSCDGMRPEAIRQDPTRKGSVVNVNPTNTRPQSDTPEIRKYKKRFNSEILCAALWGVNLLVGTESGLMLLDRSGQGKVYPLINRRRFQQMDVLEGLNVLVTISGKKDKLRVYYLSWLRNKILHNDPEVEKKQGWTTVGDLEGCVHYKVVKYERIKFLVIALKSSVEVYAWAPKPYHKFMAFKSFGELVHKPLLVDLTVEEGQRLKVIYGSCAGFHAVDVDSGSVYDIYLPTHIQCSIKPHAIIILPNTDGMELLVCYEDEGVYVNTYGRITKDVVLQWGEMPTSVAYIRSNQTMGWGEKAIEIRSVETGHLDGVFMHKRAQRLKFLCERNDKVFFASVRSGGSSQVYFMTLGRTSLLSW

GSK3A = GSK3A (Homo sapiens, UniProt P49840)
Chain of GSK3A (P49840 whole entry): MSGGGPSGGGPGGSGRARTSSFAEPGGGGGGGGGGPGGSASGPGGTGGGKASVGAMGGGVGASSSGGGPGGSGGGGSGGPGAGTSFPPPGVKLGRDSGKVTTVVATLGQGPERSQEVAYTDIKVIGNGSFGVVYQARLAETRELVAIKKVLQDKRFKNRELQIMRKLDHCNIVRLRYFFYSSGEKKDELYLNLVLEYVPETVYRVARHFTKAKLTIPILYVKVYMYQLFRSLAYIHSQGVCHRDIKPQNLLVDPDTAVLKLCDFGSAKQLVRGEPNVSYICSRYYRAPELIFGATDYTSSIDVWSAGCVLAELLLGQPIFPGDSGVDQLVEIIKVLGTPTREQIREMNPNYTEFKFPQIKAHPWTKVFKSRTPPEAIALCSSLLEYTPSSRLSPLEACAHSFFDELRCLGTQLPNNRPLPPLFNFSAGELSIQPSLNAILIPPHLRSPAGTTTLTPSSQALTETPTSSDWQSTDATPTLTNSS

GAK = molecular target: T1, GAK (Homo sapiens, UniProt O14976)
T1 sequence (O14976 1-1311): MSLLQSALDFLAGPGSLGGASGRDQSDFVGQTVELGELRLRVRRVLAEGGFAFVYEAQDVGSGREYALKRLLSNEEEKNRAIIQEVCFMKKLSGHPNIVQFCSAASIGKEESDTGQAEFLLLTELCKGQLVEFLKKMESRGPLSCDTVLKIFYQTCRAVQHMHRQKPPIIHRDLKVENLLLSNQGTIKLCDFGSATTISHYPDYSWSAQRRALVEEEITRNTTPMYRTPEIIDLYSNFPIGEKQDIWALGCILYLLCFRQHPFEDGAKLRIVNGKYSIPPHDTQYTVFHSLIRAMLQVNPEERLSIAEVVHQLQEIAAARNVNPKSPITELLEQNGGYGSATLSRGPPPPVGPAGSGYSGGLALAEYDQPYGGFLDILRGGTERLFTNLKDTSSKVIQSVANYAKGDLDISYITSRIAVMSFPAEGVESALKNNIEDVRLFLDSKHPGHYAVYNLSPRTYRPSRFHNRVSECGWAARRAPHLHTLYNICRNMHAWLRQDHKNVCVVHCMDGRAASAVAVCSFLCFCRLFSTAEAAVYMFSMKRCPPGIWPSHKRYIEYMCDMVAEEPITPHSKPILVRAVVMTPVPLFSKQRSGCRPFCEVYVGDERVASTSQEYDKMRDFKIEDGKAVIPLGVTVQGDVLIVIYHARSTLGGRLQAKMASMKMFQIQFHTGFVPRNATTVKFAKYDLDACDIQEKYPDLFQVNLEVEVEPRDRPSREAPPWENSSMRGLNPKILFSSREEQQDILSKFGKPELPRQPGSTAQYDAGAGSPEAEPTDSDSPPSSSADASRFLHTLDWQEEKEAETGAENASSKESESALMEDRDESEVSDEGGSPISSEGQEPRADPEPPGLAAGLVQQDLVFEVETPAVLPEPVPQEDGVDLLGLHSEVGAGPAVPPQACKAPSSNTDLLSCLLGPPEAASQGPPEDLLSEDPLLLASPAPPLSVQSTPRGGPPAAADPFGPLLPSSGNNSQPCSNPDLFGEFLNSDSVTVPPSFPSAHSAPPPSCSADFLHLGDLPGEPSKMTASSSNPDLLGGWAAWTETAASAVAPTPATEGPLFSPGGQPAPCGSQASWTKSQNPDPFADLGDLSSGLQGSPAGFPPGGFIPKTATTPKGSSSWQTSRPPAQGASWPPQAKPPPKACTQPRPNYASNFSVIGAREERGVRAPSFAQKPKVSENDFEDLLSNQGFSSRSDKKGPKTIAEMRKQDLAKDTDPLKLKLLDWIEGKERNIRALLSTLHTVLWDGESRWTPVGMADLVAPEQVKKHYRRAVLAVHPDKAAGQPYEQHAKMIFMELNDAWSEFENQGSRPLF

ZAK = ZAK (Homo sapiens, UniProt Q9NYL2)
Chain of ZAK (Q9NYL2 whole entry): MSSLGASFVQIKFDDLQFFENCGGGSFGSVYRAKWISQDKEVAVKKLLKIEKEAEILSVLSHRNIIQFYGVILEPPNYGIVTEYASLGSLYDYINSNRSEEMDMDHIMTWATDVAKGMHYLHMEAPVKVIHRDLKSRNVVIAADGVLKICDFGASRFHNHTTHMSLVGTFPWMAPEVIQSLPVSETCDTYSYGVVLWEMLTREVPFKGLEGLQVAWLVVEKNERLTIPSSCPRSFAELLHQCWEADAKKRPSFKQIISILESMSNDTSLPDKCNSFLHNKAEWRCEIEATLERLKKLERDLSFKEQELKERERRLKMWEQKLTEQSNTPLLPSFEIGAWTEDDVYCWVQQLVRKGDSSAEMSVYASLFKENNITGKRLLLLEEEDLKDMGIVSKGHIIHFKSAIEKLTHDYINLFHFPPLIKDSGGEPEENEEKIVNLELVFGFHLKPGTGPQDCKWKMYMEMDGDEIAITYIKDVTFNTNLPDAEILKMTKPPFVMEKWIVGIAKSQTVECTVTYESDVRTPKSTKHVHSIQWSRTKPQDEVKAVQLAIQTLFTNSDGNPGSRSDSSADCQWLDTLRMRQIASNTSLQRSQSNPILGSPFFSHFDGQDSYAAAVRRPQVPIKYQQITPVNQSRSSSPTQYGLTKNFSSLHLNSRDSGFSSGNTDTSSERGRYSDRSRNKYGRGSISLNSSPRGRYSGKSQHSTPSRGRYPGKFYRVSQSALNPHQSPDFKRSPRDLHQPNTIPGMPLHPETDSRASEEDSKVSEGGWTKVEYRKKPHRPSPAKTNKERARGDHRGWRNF

SRC = SRC (Homo sapiens, UniProt P12931)
Chain of SRC (P12931 whole entry): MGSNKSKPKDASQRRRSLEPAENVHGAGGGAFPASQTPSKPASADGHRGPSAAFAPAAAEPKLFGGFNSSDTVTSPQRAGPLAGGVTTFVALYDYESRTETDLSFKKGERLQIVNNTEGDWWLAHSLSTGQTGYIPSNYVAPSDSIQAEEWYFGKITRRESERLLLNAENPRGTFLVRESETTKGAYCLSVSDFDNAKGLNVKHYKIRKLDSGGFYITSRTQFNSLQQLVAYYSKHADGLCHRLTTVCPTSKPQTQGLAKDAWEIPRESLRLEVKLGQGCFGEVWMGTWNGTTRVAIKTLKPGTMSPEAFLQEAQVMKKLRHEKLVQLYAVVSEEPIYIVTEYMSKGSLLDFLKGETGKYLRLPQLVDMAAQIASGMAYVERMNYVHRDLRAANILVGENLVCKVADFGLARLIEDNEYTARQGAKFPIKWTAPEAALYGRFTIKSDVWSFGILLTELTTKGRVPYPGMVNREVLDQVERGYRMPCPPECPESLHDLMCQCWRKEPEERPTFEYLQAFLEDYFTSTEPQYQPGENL

RIPK2 = RIPK2 (Homo sapiens, UniProt O43353)
Chain of RIPK2 (O43353 whole entry): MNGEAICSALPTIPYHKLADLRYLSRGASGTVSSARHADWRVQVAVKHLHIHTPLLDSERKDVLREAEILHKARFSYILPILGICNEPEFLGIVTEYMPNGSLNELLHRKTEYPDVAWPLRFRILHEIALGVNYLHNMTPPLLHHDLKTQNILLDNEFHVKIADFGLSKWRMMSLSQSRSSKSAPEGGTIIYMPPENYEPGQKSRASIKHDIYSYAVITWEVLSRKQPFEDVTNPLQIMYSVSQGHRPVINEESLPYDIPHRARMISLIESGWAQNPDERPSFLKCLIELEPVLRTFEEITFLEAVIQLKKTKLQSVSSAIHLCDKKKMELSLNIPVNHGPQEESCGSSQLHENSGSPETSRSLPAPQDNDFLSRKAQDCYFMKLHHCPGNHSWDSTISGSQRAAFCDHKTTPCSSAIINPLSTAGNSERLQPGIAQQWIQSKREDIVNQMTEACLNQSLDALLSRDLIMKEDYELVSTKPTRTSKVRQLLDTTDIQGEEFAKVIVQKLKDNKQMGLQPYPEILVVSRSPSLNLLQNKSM

PRKACB = PRKACB (Homo sapiens, UniProt P22694)
SIK2 = SIK2 (Homo sapiens, UniProt Q9H0K1)
Chain of SIK2 (Q9H0K1 whole entry): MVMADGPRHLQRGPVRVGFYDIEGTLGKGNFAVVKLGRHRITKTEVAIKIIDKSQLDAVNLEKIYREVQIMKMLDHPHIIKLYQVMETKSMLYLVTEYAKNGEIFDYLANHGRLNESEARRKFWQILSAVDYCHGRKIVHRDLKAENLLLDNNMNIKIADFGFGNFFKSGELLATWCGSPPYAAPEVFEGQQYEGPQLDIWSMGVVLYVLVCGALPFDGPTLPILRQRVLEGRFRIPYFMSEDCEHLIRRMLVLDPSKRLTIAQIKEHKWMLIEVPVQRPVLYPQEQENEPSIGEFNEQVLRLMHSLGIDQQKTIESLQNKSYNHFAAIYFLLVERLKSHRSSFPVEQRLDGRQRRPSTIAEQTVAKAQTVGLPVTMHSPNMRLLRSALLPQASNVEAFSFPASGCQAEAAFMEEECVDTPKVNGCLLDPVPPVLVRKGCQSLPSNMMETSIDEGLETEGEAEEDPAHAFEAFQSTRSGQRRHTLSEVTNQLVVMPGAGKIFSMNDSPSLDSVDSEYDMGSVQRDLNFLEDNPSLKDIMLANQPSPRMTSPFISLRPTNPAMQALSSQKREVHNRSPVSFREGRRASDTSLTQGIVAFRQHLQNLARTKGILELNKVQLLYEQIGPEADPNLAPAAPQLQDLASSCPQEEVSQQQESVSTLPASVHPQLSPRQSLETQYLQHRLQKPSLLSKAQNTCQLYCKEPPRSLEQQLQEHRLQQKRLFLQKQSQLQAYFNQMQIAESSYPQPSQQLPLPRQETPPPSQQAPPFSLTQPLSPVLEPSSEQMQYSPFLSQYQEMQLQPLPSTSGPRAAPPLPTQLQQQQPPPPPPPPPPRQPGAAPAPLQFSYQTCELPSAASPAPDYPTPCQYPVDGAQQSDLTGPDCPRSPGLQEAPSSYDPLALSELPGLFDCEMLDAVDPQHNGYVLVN

Compound | Kd (MAP4K4) | Kd (GSK3A) | Kd (GAK) | Kd (ZAK) | Kd (SRC) | Kd (RIPK2) | Kd (PRKACB) | Kd (SIK2)
CN(C)CC(O)COc1ccc(Nc2ncc([N+](=O)[O-])c(Nc3ccccc3O)n2)cc1.O=C(O)C(F)(F)F (stereo not shown) [TCMDC-141399] | 1020 nM and 680 nM | 2250 nM and 2480 nM | 591 nM and 907 nM | – | – | – | – | –
Cl.NCC1(c2nc(-c3ccc(Cl)c(O)c3)c(-c3ccncc3)[nH]2)CCCCC1 [TCMDC-141154] | 850 nM and 539 nM | – | – | 6130 nM and 3630 nM | 111 nM | 14.5 nM and 17.5 nM | 811 nM | 173 nM and 161 nM
CN1CCN(c2ccc(Nc3ncc(C#N)c(Nc4ccccc4C(N)=O)n3)cc2)CC1.Cl [TCMDC-134116] | – | 470 nM and 369 nM | 32.3 nM and 39.4 nM | 677 nM | 184 nM and 157 nM | 273 nM | 5740 nM | 10.6 nM

Source: article PMC4774911, “Biochemical Screening of Five Protein Kinases from Plasmodium falciparum against 14,000 Cell-Active Compounds” (PLoS ONE, 2016)
